According to US8288389B2, “Piperazine derivative having affinity for the histamine H3 receptor” (Glaxo Group Limited, priority 2007, dated 2012):
Where a name gives a salt, the structure may show the parent alone.

Key:
[1] = Plasma clearance in the pig-PET study; assay type: in vivo, Yorkshire-Landrace pig; conditions: 50 micrograms/kg i.v.
[2] = molecular target: H3 receptor (Sus scrofa, UniProt A0A287B9V8); assay: Pig-PET study with [11C]GSK189254: pig brain H3 receptor occupancy over time and kon-koff limited model; conditions: 50 micrograms/kg i.v.; for koff: iv
[3] = molecular target: T1, histamine H3 receptor (Rattus norvegicus, UniProt Q9QYN8); conditions: following oral administration to the rat; cited from earlier work
T1 construct: from tissue; host or cells: rat cerebral cortex, crude homogenate

[4] = tested on: rats; conditions: certain oral doses; passive avoidance, water maze, object recognition, attentional set shift; cited from earlier work
[5] = tested on: male Sprague Dawley rats; assay: Toxicity Study 1: 7-day oral repeat-dose study in male Sprague Dawley rats; assay type: in vivo, rat; conditions: for tolerability: male rats
Procedure: Three male rats were added at each non-zero dose level for toxicokinetic evaluation. All doses and concentrations, including analyte concentration in plasma, are expressed in terms of the parent “free base” compound.
The following endpoints/parameters were evaluated for toxicology animals: clinical observations, body weights, food consumption measurements, selected haematology and selected clinical chemistry results, liver weights, selected macroscopic and microscopic observations, and selected hepatic gene expression analysis. Toxicokinetic evaluation (serial profiling) was performed on samples collected from satellite animals on Days 1 and 7. For male rats dosed at 30 or 100 mg/kg/day, histopathology observations carried out were on kidneys, mesentery and mandibular lymph node only. For male rats dosed at 0 mg/kg/day (control) and 300 mg/kg/day, histopathology observations carried out were on adrenals, brain, heart, kidneys, liver, lung, mandibular lymph node, mesentery, stomach, testes, and thymus (except that mandibular lymph node observations were for 0 mg/kg/day dosed rats only).

[6] = tested on: Sprague Dawley rats; assay: Toxicity Study 2: 7-day oral dose range-finding study in Sprague Dawley rats; assay type: in vivo, rat
Procedure: Three male rats and three female rats were added at 600 mg/kg/day and 3 female rats were added at 300 mg/kg/day for toxicokinetic evaluation.
The following endpoints/parameters were evaluated for toxicology animals: clinical observations, body weights, food consumption, selected haematology, selected clinical chemistry, liver weights, and selected macroscopic and microscopic observations. Toxicokinetic evaluation was performed on samples collected on Day 1 (300 and 600 mg/kg/day dosing) and Day 7 (300 mg/kg/day dosing only).

[7] = tested on: rodent models; conditions: five choice task, object recognition, elevated plus maze, acquisition of novel task, passive avoidance; cited from earlier work
[8] = Preliminary HCl-salt-formation and crystallisation experiments (relative stability of crystal forms); assay type: physicochemical; conditions: compared with crystalline Form 1
Description: Crystalline Form 1 (or a predominance of crystalline Form 1) is often formed initially depending on the conditions, but, depending on the conditions (such as the type of solvent and the solubility of crystalline Form 1 in it, and/or the temperature and/or temperature time course, and/or the contact time of the crystalline Form 1 with the solvent), the crystalline Form 1 can then often convert to crystalline Form 2 to a greater or lesser extent when in contact with a suitable solvent i.e. a solvent suitable for converting crystalline Form 1 to crystalline Form 2.

[9] = average model: derived from average plasma data and average occupancy

Chain of H3 receptor (A0A287B9V8 1-448): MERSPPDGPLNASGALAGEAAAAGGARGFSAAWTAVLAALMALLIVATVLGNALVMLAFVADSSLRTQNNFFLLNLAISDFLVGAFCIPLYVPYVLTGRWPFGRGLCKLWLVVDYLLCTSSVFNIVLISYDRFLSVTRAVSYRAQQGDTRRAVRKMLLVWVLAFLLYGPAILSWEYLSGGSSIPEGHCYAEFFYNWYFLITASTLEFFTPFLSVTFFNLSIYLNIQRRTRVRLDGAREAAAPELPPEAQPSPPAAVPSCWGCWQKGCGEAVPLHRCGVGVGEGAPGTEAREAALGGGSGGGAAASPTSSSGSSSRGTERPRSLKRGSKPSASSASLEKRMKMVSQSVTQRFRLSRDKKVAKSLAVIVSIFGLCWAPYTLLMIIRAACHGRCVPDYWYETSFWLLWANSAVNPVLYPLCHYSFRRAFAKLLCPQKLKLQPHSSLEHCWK
T1 sequence (Q9QYN8 whole entry): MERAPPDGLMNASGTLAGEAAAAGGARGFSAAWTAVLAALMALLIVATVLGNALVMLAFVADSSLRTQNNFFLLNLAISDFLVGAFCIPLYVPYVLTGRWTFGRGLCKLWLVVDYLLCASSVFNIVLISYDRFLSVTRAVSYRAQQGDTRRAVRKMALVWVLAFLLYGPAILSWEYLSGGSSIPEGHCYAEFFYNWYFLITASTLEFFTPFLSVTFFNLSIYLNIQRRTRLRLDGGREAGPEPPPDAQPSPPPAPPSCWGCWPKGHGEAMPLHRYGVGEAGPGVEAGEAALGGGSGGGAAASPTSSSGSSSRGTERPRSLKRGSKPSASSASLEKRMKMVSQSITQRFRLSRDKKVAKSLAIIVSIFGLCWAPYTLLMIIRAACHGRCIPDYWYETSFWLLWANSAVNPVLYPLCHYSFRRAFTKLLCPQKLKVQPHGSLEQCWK

CC(C)N1CCCN(C(=O)c2ccc(OC3CCOCC3)cc2)CC1 [salt B, reference compound]
Plasma clearance ([1]; average model: derived from average plasma data): 2.9 L/h
Kd (koff/kon) [2, 9]: 1.80 ng/mL

CNC(=O)c1ccc(Oc2ccc3c(c2)CCN(C2CCC2)CC3)nc1 [GSK189254]
[3]R-α-methylhistamine ex vivo binding in the rat cortex [3]: inhibited
performance of rats in cognition paradigms [4]: improved performance

CC(C)N1CCN(C(=O)c2ccc(OC3CCOCC3)cc2)CC1.Cl [Example E1]
Plasma clearance ([1]; pig 1 (individual study)): 2.9 L/h
tolerability ([5]; 300 mg/kg/day oral for 7 days (measured as the free base)): moderately well tolerated
tolerability ([5]; 30 or 100 mg/kg/day oral for 7 days (measured as the free base)): well tolerated
food consumption ([5]; rat, in vivo, po, 300 mg/kg/day): ca. 0.80 ×pretreatment
tolerability ([6]; female rats, 300 mg/kg/day oral for 7 days (measured as the free base)): moderately well tolerated
tolerability (preliminary conclusion from Toxicity Studies 1 and 2) ([6]; male and female rats, 7 days oral repeat dosing at doses of up to 300 mg/kg/day): well tolerated or moderately well tolerated
koff ([2]; PIG1, pig, pig 1 (individual study), estimated model parameter): 6.33e-05 s⁻¹
Kd (koff/kon) [2, 9]: 3.37 ng/mL
Kd (koff/kon) ([2]; mean of the individually estimated parameters, n=3 pigs): 3.35 ng/mL
reduction in pig brain H3 receptor occupancy over time, as compared to salt B ([2]; n=3 pigs, preliminary measurements): generally faster reduction in pig brain H3 receptor occupancy
koff ([2]; pig, average model: derived from average plasma data and average occupancy): 0.000152 s⁻¹
koff ([2]; pig, mean of the individually estimated parameters, n=3 pigs): 0.000243 s⁻¹
koff ([2]; pig, pig 2 (individual study), estimated model parameter): 0.00019 s⁻¹
koff ([2]; pig, pig 3 (individual study), estimated model parameter): 0.000477 s⁻¹

S=C(NC1CCCCC1)N1CCC(c2cnc[nH]2)CC1 [thioperamide]
effect in rodent cognition models [7]: cognitive enhancing properties

CC(C)N1CCN(C(=O)c2ccc(OC3CCOCC3)cc2)CC1 [Example 3]
thermodynamic stability of the crystal form [8]: more thermodynamically stable than crystalline Form 1

O=C(c1ccc(OCCCc2cnc[nH]2)cc1)C1CC1 [ciproxifan]
effect in rodent cognition models [7]: cognitive enhancing properties

CC(C)(C)CCC#C[C@@H]1C[C@H]1c1c[nH]cn1 [GT-2331]
effect in rodent cognition models [7]: cognitive enhancing properties

NC(=NCc1ccc(Cl)cc1)SCCCc1cnc[nH]1 [clobenpropit]
effect in rodent cognition models [7]: cognitive enhancing properties
